Columns and labels:
Type in all cases: cell-based
[1] = tested on: LOVO; experiment: Cell proliferation assay, LOVO (Colorectal); conditions: Homo sapiens, 48 hours
Method: (§1) Cell proliferation was analyzed after 48 hours of in vitro treatment using the CellTiter 96 Aqueous One Solution Cell Proliferation Assay (Promega, Madison, Wis.). This is a colorimetric method for determining the number of viable cells in proliferation.
(§2) For the assay, suspension cells were cultured by triplicate at a density of 1×10^6 cells/ml in 96-well plates (100.000 cells/well, 100 μl/well), except for OCILY-3 and OCILY-10 cell lines which were cultured at a density of 0.5×10^6 cells/ml (50.000 cells/well, 100 μl/well) and for HepG2, Hep3B and PLC/PRF/5 cell ines which were cultured at a density of 3000 cells/well, 100 μl/well). Adherent cells were obtained from 80-90% confluent flasks and 100 μl of cells were seeded at a density of 5000 cells/well in 96-well plates by triplicate. Before addition of the compounds, adherent cells were allowed to attach to the bottom of the wells for 12 hours. […]
(§3) After 48 hours of treatment, plates with suspension cells were centrifuged at 800 g for 10 minutes and medium was removed. […] After 1-3 hours of incubation at 37° C., absorbance was measured at 490 nm in a 96-well plate reader. The background absorbance was measured in wells with only cell line medium and solution reagent. Data was calculated as a percentage of total absorbance of treated cell/absorbance of non treated cells. […]

[2] = tested on: HCT-116; experiment: Cell proliferation assay, HCT-116 (Colorectal); conditions: Homo sapiens, 48 hours
Method: as §1, §2, §3

[3] = tested on: H460; experiment: Cell proliferation assay, H460 (non-small-cell lung cancer); conditions: Homo sapiens, NCI-H460, 48 hours
Method: as §1, §2, §3

[4] = tested on: MGH-U4; experiment: Cell proliferation assay, MGH-U4 (Bladder); conditions: 48 hours
Method: as §1, §2, §3

[5] = tested on: JJN3; experiment: Cell proliferation assay, JJN3 (MM); conditions: Homo sapiens, JJN-3, Table 5 comparison
Method: as §1
(§4) For the assay, suspension cells were cultured by triplicate at a density of 1×10^6 cells/ml in 96-well plates (100.000 cells/well, 100 μl/well), except for OCILY-3 and OCILY-10 cell lines which were cultured at a density of 0.5×10^6 cells/ml (50.000 cells/well, 100 μl/well) and for HepG2, Hep3B and PLC/PRF/5 cell ines which were cultured at a density of 3000 cells/well, 100 μl/well). Adherent cells were obtained from 80-90% confluent flasks and 100 μl of cells were seeded at a density of 5000 cells/well in 96-well plates by triplicate. Before addition of the compounds, adherent cells were allowed to attach to the bottom of the wells for 12 hours. In all cases, only the 60 inner wells were used to avoid any border effects.
(§5) After 48 hours of treatment, plates with suspension cells were centrifuged at 800 g for 10 minutes and medium was removed. The plates with adherent cells were flicked to remove medium. Then, cells were incubated with 100 ul/well of medium and 20 ul/well of CellTiter 96 Aqueous One Solution reagent. After 1-3 hours of incubation at 37° C., absorbance was measured at 490 nm in a 96-well plate reader. The background absorbance was measured in wells with only cell line medium and solution reagent. Data was calculated as a percentage of total absorbance of treated cell/absorbance of non treated cells.

[6] = tested on: SK-MEL-103; experiment: Cell proliferation assay, SK-MEL-103 (Melanoma); conditions: Homo sapiens, 48 hours
Method: as §1, §2, §3

[7] = tested on: A375; experiment: Cell proliferation assay, A375 (Melanoma); conditions: Homo sapiens, A-375, 48 hours
Method: as §1, §2, §3

[8] = tested on: SK-MEL-147; experiment: Cell proliferation assay, SK-MEL-147 (Melanoma); conditions: Homo sapiens, 48 hours
Method: as §1, §2, §3

[9] = tested on: CAKI-2; experiment: Cell proliferation assay, CAKI-2 (Renal); conditions: Homo sapiens, 48 hours
Method: as §1, §2, §3

[10] = tested on: U87-MG; experiment: Cell proliferation assay, U87-MG (Glioblastoma); conditions: Homo sapiens, U-87 MG, 48 hours
Method: as §1, §2, §3

[11] = tested on: COLO-205; experiment: Cell proliferation assay, COLO-205 (Colorectal); conditions: Homo sapiens, 48 hours
Method: as §1, §2, §3

[12] = tested on: OCI-Ly3; experiment: Cell proliferation assay, OCI-Ly3 (ABC-DLBCL); conditions: Homo sapiens, 48 hours of treatment, Table 3
[13] = tested on: U266; experiment: Cell proliferation assay, U266 (MM); conditions: Homo sapiens, U-266, Table 5 comparison
Method: as §1, §4, §5

[14] = tested on: PLC/PRF/5; experiment: Cell proliferation assay, PLC/PRF/5 (HCC); conditions: Homo sapiens, 48 hours of treatment, Table 3
[15] = tested on: MOLM-13; experiment: Cell proliferation assay, MOLM-13 (AML); conditions: Homo sapiens, 48 hours
Method: as §1, §2, §3

[16] = tested on: OCI-AML-2; experiment: Cell proliferation assay, OCI-AML-2 (AML); conditions: Homo sapiens
Method: as §1, §4, §5
Compounds 3-04 and 3-07 were tested against different solid tumour and oncohematological cell lines using the cell proliferation protocol described above.

[17] = tested on: MCF-7; experiment: Cell proliferation assay, MCF-7 (Breast); conditions: Homo sapiens, MCF7, 48 hours
Method: as §1, §2, §3

[18] = tested on: UM-UC-7; experiment: Cell proliferation assay, UM-UC-7 (Bladder); conditions: 48 hours
Method: as §1, §2, §3

[19] = tested on: Sk-Hep1; experiment: Cell proliferation assay, Sk-Hep1 (Hepatocarcinoma); conditions: Homo sapiens, 48 hours
Method: as §1, §2, §3

[20] = tested on: HepG2; experiment: Cell proliferation assay, HepG2 (HCC); conditions: Homo sapiens, 48 hours of treatment, Table 3
[21] = tested on: 1205-LU; experiment: Cell proliferation assay, 1205-LU (Melanoma); conditions: Homo sapiens, 48 hours
Method: as §1, §2, §3

[22] = tested on: Hep3B; experiment: Cell proliferation assay, Hep3B (HCC); conditions: Homo sapiens, 48 hours of treatment, Table 3
[23] = tested on: WM-35; experiment: Cell proliferation assay, WM-35 (Melanoma); conditions: WM35, 48 hours
Method: as §1, §2, §3

[24] = tested on: SU8686; experiment: Cell proliferation assay, SU8686 (Pancreas); conditions: Homo sapiens, SU.86.86, 48 hours
Method: as §1, §2, §3

[25] = tested on: 451-LU; experiment: Cell proliferation assay, 451-LU (Melanoma); conditions: 48 hours
Method: as §1, §2, §3

Structure (SMILES)	GI50 [1] [nM]	GI50 [2] [nM]	GI50 [3] [nM]	GI50 [4] [nM]	GI50 [5] [nM]	GI50 [6] [nM]	GI50 [7] [nM]	GI50 [8] [nM]	GI50 [9] [nM]	GI50 [10] [nM]	GI50 [11] [nM]	GI50 [12] [nM]	GI50 [13] [nM]	GI50 [14] [nM]	GI50 [15] [nM]	GI50 ([16]; OCI-AML2, 48 hours, Table 4) [nM]	GI50 ([16]; OCI-AML2, Table 5 comparison) [nM]	GI50 [17] [nM]	GI50 [18] [nM]	GI50 [19] [nM]	other results
COc1cc2c(NC3CCN(C)CC3)cc(-c3ccc(C)o3)nc2cc1OCCCN1CCCC1.O=C(O)C(F)(F)F [Compound 3-04, 6-methoxy-2-(5-methyl-2-furyl)-N-(1-methyl-4-piperidyl)-7-(3-pyrrolidin-1-ylpropoxy)quinolin-4-amine; 2,2,2-trifluoroacetic acid]	1000 to 10000	100 to 1000	100 to 1000	100 to 1000	1000 to 10000	100 to 1000	100 to 1000	100 to 1000	1000 to 10000	100 to 1000	100 to 1000	100 to 1000	1000 to 10000	100 to 1000	100 to 1000	100 to 1000	100 to 1000	100 to 1000	100 to 1000	100 to 1000	GI50 [20]: 100 to 1000 nM; GI50 [21]: 100 to 1000 nM; GI50 [22]: 100 to 1000 nM; GI50 [23]: 100 to 1000 nM; GI50 [24]: 1000 to 10000 nM; GI50 [25]: 100 to 1000 nM
COc1cc2c(NCC3CCN(C)CC3)cc(-c3ccc(C)o3)nc2cc1OCCCN1CCCC1 [Compound 3-07]	100 to 1000	100 to 1000	100 to 1000	100 to 1000	1000 to 10000	≤ 100	≤ 100	≤ 100	100 to 1000	100 to 1000	100 to 1000	100 to 1000	1000 to 10000	100 to 1000	1000 to 10000	100 to 1000	100 to 1000	1000 to 10000	100 to 1000	100 to 1000	GI50 [20]: 100 to 1000 nM; GI50 [21]: ≤ 100 nM; GI50 [22]: 100 to 1000 nM; GI50 [23]: 100 to 1000 nM; GI50 [24]: 100 to 1000 nM; GI50 [25]: ≤ 100 nM

— patent publication US9840500B2, “Compounds as dual inhibitors of histone methyltransferases and DNA methyltransferases” (FUNDACIÓN PARA LA INVESTIGACIÓN MÉDICA APLICADA, priority 2014, dated 2017)
